PMC7037732, “Synthesis of Combretastatin A-4 and 3′-Aminocombretastatin A-4 derivatives with Aminoacid Containing Pendants and Study of their Interaction with Tubulin and as Downregulators of the VEGF, hTERT and c-Myc Gene Expression” (Molecules, 2020)

What was measured:
[1] = test system: MCF-7 (breast adenocarcinoma); test: Inhibition of cell proliferation (MTT), MCF-7; format: cell-based, human; settings: Homo sapiens, 48 h of treatment (footnote), average ±SD of three experiments
Description: (§1) The ability of the synthetic compounds to inhibit cell proliferation was established by means of their IC50 values towards the tumor cell lines HT-29 (human colon adenocarcinoma), MCF-7 (breast adenocarcinoma) and A-549 (human pulmonary adenocarcinoma), as well as towards the nontumor cell line HEK-293 (human embryonic kidney cells). Results for compounds derived from CA-4 are presented in Table 1, along with the calculated selectivity indexes SIA (for HT-29 cell line), SIB (for MCF-7 cell line) and SIc (for A-549 cell line), obtained by dividing the IC50 values of the nontumor cell line (HEK-293) by those of the corresponding tumor cell line. The higher the SI index, the higher the therapeutic safety margin.
(§2) Cell culture media were purchased from Gibco (Grand Island, NY, USA). Fetal bovine serum (FBS) was a product of Harlan-Seralab (Belton, U.K.). Supplements and other chemicals not listed in this section were obtained from Sigma Chemical Co. (St. Louis, MO, USA). Plastics for cell culture were supplied by Thermo Fischer Scientific Inc., Madrid, Spain. All tested compounds were dissolved in DMSO at a concentration of 10 μg/mL and stored at −20 °C until use. HT-29, MCF-7, A-549 and HEK-293 cell lines were maintained in a Dulbecco’s modified Eagle’s medium (DMEM) containing glucose (1 g/L), glutamine (2 mM), penicillin (50 IU/mL), streptomycin (50 μg/mL) and amphotericin B (1.25 μg/mL), supplemented with 10% FBS. Cells from human non-small lung carcinoma (clone A549; ATCC n°: CCL2, MD, USA) were routinely grown at 37 °C in a humidified atmosphere of 5% CO2. Cells were maintained in a standard medium composed of RPMI 1640 (Lonza, Group Ltd., Basel, Switzerland), supplemented with 10% fetal bovine serum (FBS), 2 mM L-glutamine and 1% penicillin and streptomycin (Invitrogen). Cells were free from mycoplasma as determined by MycoAlert tests (Lonza, Group Ltd., Basel, Switzerland).
(§3) A total of 5 × 10^3 HT-29, MCF-7 or HEK-293 cells in a total volume of 100 μL of their respective growth media were incubated with serial dilutions of the tested compounds. The 3-(4,5-dimethylthiazol-2-yl)-2,5-diphenyltetrazolium bromide (MTT; Sigma Chemical Co.) dye reduction assay in a 96-well microplate was used, as previously described. […] The resulting formazan was dissolved in 150 μL of 0.04 N HCl/2-propanol and read at 550 nm. All determinations were carried out in triplicate.

[2] = test system: HEK-293 (human embryonic kidney cells); test: Inhibition of cell proliferation (MTT), nontumor HEK-293; format: cell-based; settings: Homo sapiens, 48 h of treatment (footnote), average ±SD of three experiments
Description: as §1, §2, §3

purified tubulin = test: Critical concentration (CrC) for the assembly of purified tubulin in GAB; format: biochemical; settings: compound 27.5 μM, tubulin 25 μM, glycerol (GAB) and GTP assembly buffer; control 7.9 ± 1.2
Protocol: The effect on the self-assembly of tubulin was determined by measuring the critical concentration (CrC).

[3] = test system: HT-29 (human colon adenocarcinoma); test: Inhibition of cell proliferation (MTT), HT-29; format: cell-based; settings: Homo sapiens, 48 h of treatment (footnote), average ±SD of three experiments
Description: as §1, §2, §3

[4] = test system: A-549 (human pulmonary adenocarcinoma); test: Inhibition of cell proliferation (MTT), A-549; format: cell-based; settings: 48 h of treatment (footnote), average ±SD of three experiments
Description: as §1
as §2, with “Switzerland). […]” for “Switzerland).”

A-549 cells = test: Cell cycle distribution by flow cytometry; format: cell-based, human; settings: A-549, 24 h; for cells accumulated in the G2/M phase: concentration per compound as in Tables 6 and 7, control 14%
Protocol: The effects of some CA-4 derivatives on the cell cycle were evaluated in A-549 cells.
The effects of some AmCA-4 derivatives on the cell cycle were also evaluated in A-549 cells.
The supernatant and trypsinated cells were harvested and then centrifuged (1200 rpm, 5 min, 4 °C). The cell pellet was resuspended in 1 mL of cold 70% ethanol for 30 min at −20 °C. Cells were centrifuged (2000 rpm, 5 min, 4 °C) to remove ethanol, and then the cell pellet was resuspended in the staining mix containing 50 µg/mL propidium iodide (Molecular Probes, France) and 100 µg/mL RNAse A (Sigma, France) in PBS for 20 min at room temperature in darkness. Samples were analyzed on a Becton Dickinson FACScan flow cytometer using the CellQuest software, which was also used to determine the percentage of cells in the G2/M phases of the cell cycle. PI was excited at 488 nm, and fluorescence analyzed at 620 nm on channel Fl-2.

[5] = Homo sapiens, A549, 48 h, Table 1
[6] = Homo sapiens, A549, 48 h, Table 2

SMILES: COC(=O)CNC(=O)COc1cc(/C=C\c2cc(OC)c(OC)c(OC)c2)ccc1OC [Compound 3.1]
- IC50 ([1]; MCF7, 48 h, Table 1): 8 ± 2 µM
- IC50 ([2]; HEK293, 48 h, Table 1): 9 ± 1 µM
- CrC (critical concentration) (purified tubulin): 9.52 ± 0.05 µM
- IC50 ([3]; HT-29, 48 h, Table 1): 12 ± 2 µM
- IC50 [4, 5]: 26 ± 2 µM

SMILES: COC(=O)[C@H](Cc1ccccc1)NC(=O)COc1cc(/C=C\c2cc(OC)c(OC)c(OC)c2)ccc1OC [Compound 3.4]
- G0/G1 (A-549 cells; 50 μM): 33 ± 4%
- G2/M (A-549 cells; 50 μM): 51 ± 2%
- S (A-549 cells; 50 μM): 16 ± 5%
- cells accumulated in the G2/M phase (A-549 cells): 50–70%
- IC50 ([1]; MCF7, 48 h, Table 1): 8 ± 2 µM
- IC50 ([2]; HEK293, 48 h, Table 1): 4 ± 1 µM
- IC50 ([3]; HT-29, 48 h, Table 1): 28 ± 7 µM
- IC50 [4, 5]: < 10 µM
- IC50 ([4]; Table 1): 9 ± 2 µM

SMILES: COC(=O)[C@H](CO)NC(=O)COc1cc(/C=C\c2cc(OC)c(OC)c(OC)c2)ccc1OC [Compound 3.6]
- G0/G1 (A-549 cells; 75 μM): 30 ± 9%
- G2/M (A-549 cells; 75 μM): 53 ± 3%
- S (A-549 cells; 75 μM): 17 ± 6%
- cells accumulated in the G2/M phase (A-549 cells): 50–70%
- IC50 ([1]; MCF7, 48 h, Table 1): 7 ± 3 µM
- IC50 ([2]; HEK293, 48 h, Table 1): 7 ± 2 µM
- IC50 ([3]; HT-29, 48 h, Table 1): 9 ± 3 µM
- IC50 [4, 5]: 18 ± 4 µM

SMILES: COc1ccc(/C=C\c2cc(OC)c(OC)c(OC)c2)cc1OCC(=O)N[C@@H](CO)C(=O)O [Compound 4.6]
- IC50 ([1]; MCF7, 48 h, Table 1): 27 ± 9 µM
- IC50 ([2]; HEK293, 48 h, Table 1): 17 ± 1 µM
- CrC (critical concentration) (purified tubulin): 7.9 ± 1.6 µM
- IC50 ([3]; HT-29, 48 h, Table 1): 39 ± 16 µM
- IC50 [4, 5]: 36 ± 4 µM

SMILES: COc1ccc(/C=C\c2cc(OC)c(OC)c(OC)c2)cc1OCC(=O)N[C@H](C(=O)O)C(C)O (some centres unmarked) [Compound 4.7]
- IC50 ([1]; MCF7, 48 h, Table 1): 40 ± 9 µM
- IC50 ([2]; HEK293, 48 h, Table 1): 23 ± 9 µM
- CrC (critical concentration) (purified tubulin): 10.1 ± 1.8 µM
- IC50 ([3]; HT-29, 48 h, Table 1): 34 ± 11 µM
- IC50 [4, 5]: 41 ± 3 µM

SMILES: COc1ccc(/C=C\c2cc(OC)c(OC)c(OC)c2)cc1OCC(=O)N[C@@H](Cc1ccc(O)cc1)C(=O)O [Compound 4.8]
- IC50 ([1]; MCF7, Table 1): 43 ± 7 µM
- IC50 ([2]; HEK293, Table 1): 33 ± 1 µM
- CrC (critical concentration) (purified tubulin): 8.5 ± 2.0 µM
- IC50 ([3]; HT-29, Table 1): 55 ± 5 µM
- IC50 [4, 5]: 30 ± 7 µM

SMILES: COC(=O)[C@H](NC(=O)COc1cc(/C=C\c2cc(OC)c(OC)c(OC)c2)ccc1OC)C(C)C [Compound 5.1]
- G0/G1 (A-549 cells; 25 μM): 53 ± 8%
- G2/M (A-549 cells; 25 μM): 31 ± 7%
- S (A-549 cells; 25 μM): 16 ± 2%
- IC50 ([1]; MCF7, 48 h, Table 1): 9 ± 3 µM
- IC50 ([2]; HEK293, 48 h, Table 1): 3.9 ± 0.6 µM
- IC50 ([3]; HT-29, 48 h, Table 1): 27 ± 7 µM
- IC50 [4, 5]: < 10 µM
- IC50 ([4]; Table 1): 5 ± 1 µM

SMILES: COC(=O)[C@@H](CC(C)C)NC(=O)COc1cc(/C=C\c2cc(OC)c(OC)c(OC)c2)ccc1OC [Compound 5.2]
- G0/G1 (A-549 cells; 100 μM): 43 ± 4%
- G2/M (A-549 cells; 100 μM): 34 ± 1%
- S (A-549 cells; 100 μM): 23 ± 4%
- IC50 ([1]; MCF7, 48 h, Table 1): 16 ± 3 µM
- IC50 ([2]; HEK293, 48 h, Table 1): 13 ± 3 µM
- IC50 ([3]; HT-29, 48 h, Table 1): 26 ± 1 µM
- IC50 [4, 5]: 22 ± 3 µM

SMILES: COC(=O)[C@@H](Cc1ccccc1)NC(=O)COc1cc(/C=C\c2cc(OC)c(OC)c(OC)c2)ccc1OC [Compound 5.3]
- G0/G1 (A-549 cells; 50 μM): 38 ± 2%
- G2/M (A-549 cells; 50 μM): 43 ± 1%
- S (A-549 cells; 50 μM): 19 ± 2%
- IC50 ([1]; MCF7, 48 h, Table 1): 6 ± 1 µM
- IC50 ([2]; HEK293, 48 h, Table 1): 3.7 ± 1.6 µM
- IC50 ([3]; HT-29, 48 h, Table 1): 12 ± 4 µM
- IC50 [4, 5]: 10 ± 3 µM

SMILES: COc1ccc(/C=C\c2cc(OC)c(OC)c(OC)c2)cc1NC(=O)[C@@H]1CCCN1C(=O)OCC1c2ccccc2-c2ccccc21 [Compound 7.6]
- IC50 ([1]; MCF7, 48 h, Table 2): 0.058 ± 0.012 µM
- IC50 ([2]; HEK293, 48 h, Table 2): 0.13 ± 0.03 µM
- CrC (critical concentration) (purified tubulin): 6.0 ± 0.5 µM
- IC50 ([3]; HT-29, 48 h, Table 2): 0.32 ± 0.14 µM
- IC50 [4, 6]: 1.33 ± 0.09 µM

SMILES: COc1ccc(/C=C\c2cc(OC)c(OC)c(OC)c2)cc1NC(=O)[C@@H]1CCCN1 [Compound 8.6]
- IC50 ([1]; MCF7, 48 h, Table 2): 3.1 ± 0.6 µM
- IC50 ([2]; HEK293, 48 h, Table 2): 2.4 ± 1.4 µM
- CrC (critical concentration) (purified tubulin): 8.4 ± 0.1 µM
- IC50 ([3]; HT-29, 48 h, Table 2): 0.7 ± 0.2 µM
- IC50 [4, 6]: 1.2 ± 0.3 µM

SMILES: COc1ccc(/C=C\c2cc(OC)c(OC)c(OC)c2)cc1NC(=O)[C@H](NC(=O)OCC1c2ccccc2-c2ccccc21)C(C)C [Compound 9.1]
- IC50 ([1]; MCF7, 48 h, Table 2): 4.8 ± 0.5 µM
- IC50 ([2]; HEK293, 48 h, Table 2): 5.1 ± 0.7 µM
- CrC (critical concentration) (purified tubulin): 8.9 ± 1.5 µM
- IC50 ([3]; HT-29, 48 h, Table 2): 5.5 ± 0.7 µM
- IC50 [4, 6]: 7.34 ± 0.23 µM

SMILES: COc1ccc(/C=C\c2cc(OC)c(OC)c(OC)c2)cc1NC(=O)[C@@H](CC(C)C)NC(=O)OCC1c2ccccc2-c2ccccc21 [Compound 9.2]
- IC50 ([1]; MCF7, 48 h, Table 2): 3.1 ± 0.5 µM
- IC50 ([2]; HEK293, 48 h, Table 2): 2.4 ± 0.4 µM
- CrC (critical concentration) (purified tubulin): 6.5 ± 0.7 µM
- IC50 ([3]; HT-29, 48 h, Table 2): 44 ± 6 µM
- IC50 [4, 6]: 48 ± 3 µM

SMILES: COc1ccc(/C=C\c2cc(OC)c(OC)c(OC)c2)cc1NC(=O)[C@@H](Cc1ccccc1)NC(=O)OCC1c2ccccc2-c2ccccc21 [Compound 9.3]
- IC50 ([1]; MCF7, 48 h, Table 2): 4.5 ± 1.7 µM
- IC50 ([2]; HEK293, 48 h, Table 2): 11.2 ± 1.5 µM
- CrC (critical concentration) (purified tubulin): 6.6 ± 0.2 µM
- IC50 ([3]; HT-29, 48 h, Table 2): 13 ± 5 µM
- IC50 [4, 6]: 18.5 ± 1.7 µM

SMILES: COc1ccc(/C=C\c2cc(OC)c(OC)c(OC)c2)cc1NC(=O)[C@H](N)Cc1ccccc1 [Compound 10.3]
- IC50 ([1]; MCF7, 48 h, Table 2): 2 ± 0.8 µM
- IC50 ([2]; HEK293, 48 h, Table 2): 3.5 ± 0.9 µM
- CrC (critical concentration) (purified tubulin): 7.7 ± 2.1 µM
- IC50 ([3]; HT-29, 48 h, Table 2): 3.9 ± 0.8 µM
- IC50 [4, 6]: 2.9 ± 0.5 µM
